Patent publication US20250066388A1, “1,3,4,7-TETRAHYDRO-2H-PYRROLO[3',2':5,6]PYRIDO[2,3-B][1,4]OXAZEPINE BCL-2 INHIBITORS” (AbbVie Inc., priority 2022, published 2025)

Columns and labels:
RS4;11 cells = experiment: Cell viability assay (CellTiter-Glo) in RS4;11 cells; format: cell-based; details: 24 hours, 10% Human Serum
Experimental: (§1) The acute lymphoblastic leukemia (ALL) human cell line RS4;11 (ATCC, Manassas VA) was used as the primary human cell line to assess the cellular activity of compound of the present Examples in vitro and their efficacy in vivo. […] The acute lymphoblastic leukemia cell line Molt-4, which is derived from immature T-lymphoid cells (T-ALL), was used as a counter screen assay.
(§2) 3000 Cells (0.1×10^6/mL) were seeded in each well of 384-well plate and were treated for 24 hours in a humidified chamber with 5% CO2. Cell viability was determined by CellTiter-Glo as described by the manufacturer's instructions (Promega Corporation, Madison, WI, USA).

Molt-4 cells = experiment: Cell viability counter screen (CellTiter-Glo) in Molt-4 cells; format: cell-based; details: 24 hours, 10% Human Serum
Experimental: as §1, §2

Bcl-2 protein = Bcl-2 protein (Homo sapiens (Human), UniProt P10415); experiment: TR-FRET binding assay, Bcl-2; details: F-Bak peptide probe, GST-Bcl-2
Bcl-xL protein = Bcl-xL protein (Homo sapiens (Human), UniProt Q07817); experiment: TR-FRET binding assay, Bcl-xL; details: F-Bak peptide probe
Chain of Bcl-xL protein (Q07817 other isoform, or with tags, fused parts or gaps): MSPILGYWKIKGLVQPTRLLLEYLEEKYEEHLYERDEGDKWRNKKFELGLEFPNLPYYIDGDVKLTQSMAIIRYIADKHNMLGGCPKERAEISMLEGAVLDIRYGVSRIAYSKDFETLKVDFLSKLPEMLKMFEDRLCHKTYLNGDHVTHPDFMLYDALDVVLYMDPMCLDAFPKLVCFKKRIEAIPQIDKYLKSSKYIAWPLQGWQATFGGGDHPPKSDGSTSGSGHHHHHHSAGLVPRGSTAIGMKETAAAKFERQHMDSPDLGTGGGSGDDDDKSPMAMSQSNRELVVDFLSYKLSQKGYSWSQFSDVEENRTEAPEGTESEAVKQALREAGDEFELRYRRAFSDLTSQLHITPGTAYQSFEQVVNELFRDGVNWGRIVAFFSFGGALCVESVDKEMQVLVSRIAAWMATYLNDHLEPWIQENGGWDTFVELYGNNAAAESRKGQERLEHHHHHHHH

Chain of Bcl-2 protein (P10415 other isoform, or with tags, fused parts or gaps): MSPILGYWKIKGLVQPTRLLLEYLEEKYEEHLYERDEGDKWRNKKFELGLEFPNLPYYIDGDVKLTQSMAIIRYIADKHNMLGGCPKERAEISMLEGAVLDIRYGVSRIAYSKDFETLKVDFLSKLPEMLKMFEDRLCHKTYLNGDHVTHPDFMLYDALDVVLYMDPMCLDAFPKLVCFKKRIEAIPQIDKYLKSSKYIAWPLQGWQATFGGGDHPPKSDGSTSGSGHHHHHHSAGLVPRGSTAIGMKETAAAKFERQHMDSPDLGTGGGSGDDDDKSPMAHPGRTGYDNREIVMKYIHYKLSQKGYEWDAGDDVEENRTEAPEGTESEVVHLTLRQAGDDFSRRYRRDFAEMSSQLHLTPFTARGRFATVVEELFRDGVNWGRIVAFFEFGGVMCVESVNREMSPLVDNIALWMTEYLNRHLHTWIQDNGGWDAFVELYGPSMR

Compound	EC50 (RS4;11 cells) [nM]	EC50 (Molt-4 cells) [nM]	Ki (Bcl-2 protein) [nM]	Ki (Bcl-xL protein) [nM]
CC1(C)CC(c2ccc(Cl)cc2)=C2CN3CCN(c4ccc(C(=O)NS(=O)(=O)c5ccc(NCC6CCOCC6)c([N+](=O)[O-])c5)c(N5CCCOc6nc7[nH]ccc7cc65)c4)C[C@H]3COCCCO[C@@H]2C1 [Example 1, 4-((4aS,10aR)-14-(4-chlorophenyl)-12,12-dimethyl-1,2,4a,5,8,9,10a,11,13,15-decahydro-7H,12H-benzo[f]pyrazino[2,1-c][1,8]dioxa[4]azacycloundecin-3(4H)-yl)-2-(3,4-dihydro-2H-pyrrolo[3′,2′:5,6]pyrido[2,3-b][1,4]oxazepin-1(7H)-yl)-N-((3-nitro-4-(((tetrahydro-2H-pyran-4-yl)methyl)amino)phenyl)sulfonyl)benzamide]	4.01	> 10000	0.459	19.4
CC1(C)CC(c2ccc(Cl)cc2)=C2CN3CCN(c4ccc(C(=O)NS(=O)(=O)c5ccc(NC[C@H]6CC[C@](O)(CF)CC6)c([N+](=O)[O-])c5)c(N5CCCOc6nc7[nH]ccc7cc65)c4)C[C@H]3COCCCO[C@@H]2C1 [Example 14, 4-((4aS,10aR)-14-(4-chlorophenyl)-12,12-dimethyl-1,2,4a,5,8,9,10a,11,13,15-decahydro-7H,12H-benzo[f]pyrazino[2,1-c][1,8]dioxa[4]azacycloundecin-3(4H)-yl)-2-(3,4-dihydro-2H-pyrrolo[3′,2′:5,6]pyrido[2,3-b][1,4]oxazepin-1(7H)-yl)-N-((4-((((1s,4s)-4-(fluoromethyl)-4-hydroxycyclohexyl)methyl)amino)-3-nitrophenyl)sulfonyl)benzamide]	1.64	1740	0.24	20.8
CN1CCC(Nc2ccc(S(=O)(=O)NC(=O)c3ccc(N4CCN5CC6=C(c7ccc(Cl)cc7)CC(C)(C)C[C@H]6OCCCOC[C@@H]5C4)cc3N3CCCOc4nc5[nH]ccc5cc43)cc2[N+](=O)[O-])CC1 [Example 31, 4-((4aS,10aR)-14-(4-chlorophenyl)-12,12-dimethyl-1,2,4a,5,8,9,10a,11,13,15-decahydro-7H,12H-benzo[f]pyrazino[2,1-c][1,8]dioxa[4]azacycloundecin-3(4H)-yl)-2-(3,4-dihydro-2H-pyrrolo[3′,2′:5,6]pyrido[2,3-b][1,4]oxazepin-1(7H)-yl)-N-((4-((1-methylpiperidin-4-yl)amino)-3-nitrophenyl)sulfonyl)benzamide]	3.24	1220	0.51	5.75
CO[C@H]1C[C@H](CNc2ccc(S(=O)(=O)NC(=O)c3ccc(N4CCN5CC6=C(c7ccc(Cl)cc7)CC(C)(C)C[C@H]6OCCCOC[C@@H]5C4)cc3N3CCCOc4nc5[nH]ccc5cc43)cc2[N+](=O)[O-])C1 [Example 41, 4-((4aS,10aR)-14-(4-chlorophenyl)-12,12-dimethyl-1,2,4a,5,8,9,10a,11,13,15-decahydro-7H,12H-benzo[f]pyrazino[2,1-c][1,8]dioxa[4]azacycloundecin-3(4H)-yl)-2-(3,4-dihydro-2H-pyrrolo[3′,2′:5,6]pyrido[2,3-b][1,4]oxazepin-1(7H)-yl)-N-((4-((((1r,3r)-3-methoxycyclobutyl)methyl)amino)-3-nitrophenyl)sulfonyl)benzamide]	3.93	> 10000	0.224	25.2
CC1(C)CC(c2ccc(Cl)cc2)=C2CN3CCN(c4ccc(C(=O)NS(=O)(=O)c5ccc(NC[C@H]6CC[C@](C)(O)CO6)c([N+](=O)[O-])c5)c(N5CCCOc6nc7[nH]ccc7cc65)c4)C[C@H]3COCCCO[C@@H]2C1 [Example 2, 4-((4aS,10aR)-14-(4-chlorophenyl)-12,12-dimethyl-1,2,4a,5,8,9,10a,11,13,15-decahydro-7H,12H-benzo[f]pyrazino[2,1-c][1,8]dioxa[4]azacycloundecin-3(4H)-yl)-2-(3,4-dihydro-2H-pyrrolo[3′,2′:5,6]pyrido[2,3-b][1,4]oxazepin-1(7H)-yl)-N-((4-((((2R,5S)-5-hydroxy-5-methyltetrahydro-2H-pyran-2-yl)methyl)amino)-3-nitrophenyl)sulfonyl)benzamide]	0.651	1220	0.0489	9.3
CC1(C)CC(c2ccc(Cl)cc2)=C2CN3CCN(c4ccc(C(=O)NS(=O)(=O)c5ccc(OCC6(F)CCN(C7COC7)CC6)c([N+](=O)[O-])c5)c(N5CCCOc6nc7[nH]ccc7cc65)c4)C[C@H]3COCCCO[C@@H]2C1 [Example 19, 4-((4aS,10aR)-14-(4-chlorophenyl)-12,12-dimethyl-1,2,4a,5,8,9,10a,11,13,15-decahydro-7H,12H-benzo[f]pyrazino[2,1-c][1,8]dioxa[4]azacycloundecin-3(4H)-yl)-2-(3,4-dihydro-2H-pyrrolo[3′,2′:5,6]pyrido[2,3-b][1,4]oxazepin-1(7H)-yl)-N-((4-((4-fluoro-1-(oxetan-3-yl)piperidin-4-yl)methoxy)-3-nitrophenyl)sulfonyl)benzamide]	0.881	132	0.475	2.23
CC1(C)CC(c2ccc(Cl)cc2)=C2CN3CCN(c4ccc(C(=O)NS(=O)(=O)c5ccc(OCC6CCOCC6)c([N+](=O)[O-])c5)c(N5CCCOc6nc7[nH]ccc7cc65)c4)C[C@H]3COCCCO[C@@H]2C1 [Example 46, 4-((4aS,10aR)-14-(4-chlorophenyl)-12,12-dimethyl-1,2,4a,5,8,9,10a,11,13,15-decahydro-7H,12H-benzo[f]pyrazino[2,1-c][1,8]dioxa[4]azacycloundecin-3(4H)-yl)-2-(3,4-dihydro-2H-pyrrolo[3′,2′:5,6]pyrido[2,3-b][1,4]oxazepin-1(7H)-yl)-N-((3-nitro-4-((tetrahydro-2H-pyran-4-yl)methoxy)phenyl)sulfonyl)benzamide]	9.36	> 10000	0.202	21.7
CC1(C)CC(c2ccc(Cl)cc2)=C2CN3CCN(c4ccc(C(=O)NS(=O)(=O)c5ccc(NCC6(F)CCN(C7COC7)CC6)c([N+](=O)[O-])c5)c(N5CCCOc6nc7[nH]ccc7cc65)c4)C[C@H]3COCCCO[C@@H]2C1 [Example 39, 4-((4aS,10aR)-14-(4-chlorophenyl)-12,12-dimethyl-1,2,4a,5,8,9,10a,11,13,15-decahydro-7H,12H-benzo[f]pyrazino[2,1-c][1,8]dioxa[4]azacycloundecin-3(4H)-yl)-2-(3,4-dihydro-2H-pyrrolo[3′,2′:5,6]pyrido[2,3-b][1,4]oxazepin-1(7H)-yl)-N-((4-(((4-fluoro-1-(oxetan-3-yl)piperidin-4-yl)methyl)amino)-3-nitrophenyl)sulfonyl)benzamide]	1.66	453	0.194	5.25
CC1(C)CC(c2ccc(Cl)cc2)=C2CN3CCN(c4ccc(C(=O)NS(=O)(=O)c5ccc(NCC6(O)CCOCC6)c([N+](=O)[O-])c5)c(N5CCCOc6nc7[nH]ccc7cc65)c4)C[C@H]3COCCCO[C@@H]2C1 [Example 18, 4-((4aS,10aR)-14-(4-chlorophenyl)-12,12-dimethyl-1,2,4a,5,8,9,10a,11,13,15-decahydro-7H,12H-benzo[f]pyrazino[2,1-c][1,8]dioxa[4]azacycloundecin-3(4H)-yl)-2-(3,4-dihydro-2H-pyrrolo[3′,2′:5,6]pyrido[2,3-b][1,4]oxazepin-1(7H)-yl)-N-((4-(((4-hydroxytetrahydro-2H-pyran-4-yl)methyl)amino)-3-nitrophenyl)sulfonyl)benzamide]	1.43	426	0.223	8.31
CO[C@H]1CC[C@H](COc2ccc(S(=O)(=O)NC(=O)c3ccc(N4CCN5CC6=C(c7ccc(Cl)cc7)CC(C)(C)C[C@H]6OCCCOC[C@@H]5C4)cc3N3CCCOc4nc5[nH]ccc5cc43)cc2[N+](=O)[O-])OC1 [Example 33, 4-((4aS,10aR)-14-(4-chlorophenyl)-12,12-dimethyl-1,2,4a,5,8,9,10a,11,13,15-decahydro-7H,12H-benzo[f]pyrazino[2,1-c][1,8]dioxa[4]azacycloundecin-3(4H)-yl)-2-(3,4-dihydro-2H-pyrrolo[3′,2′:5,6]pyrido[2,3-b][1,4]oxazepin-1(7H)-yl)-N-((4-(((2R,5S)-5-methoxytetrahydro-2H-pyran-2-yl)methoxy)-3-nitrophenyl)sulfonyl)benzamide]	3.49	6080	0.272	28.6
CC1(C)CC(c2ccc(Cl)cc2)=C2CN3CCN(c4ccc(C(=O)NS(=O)(=O)c5ccc(NC[C@H]6C[C@](O)(C7CCC7)C6)c([N+](=O)[O-])c5)c(N5CCCOc6nc7[nH]ccc7cc65)c4)C[C@H]3COCCCO[C@@H]2C1 [Example 15, 4-((4aS,10aR)-14-(4-chlorophenyl)-12,12-dimethyl-1,2,4a,5,8,9,10a,11,13,15-decahydro-7H,12H-benzo[f]pyrazino[2,1-c][1,8]dioxa[4]azacycloundecin-3(4H)-yl)-2-(3,4-dihydro-2H-pyrrolo[3′,2′:5,6]pyrido[2,3-b][1,4]oxazepin-1(7H)-yl)-N-((4-((((1s,3s)-1-hydroxy-[1,1′-bi(cyclobutan)]-3-yl)methyl)amino)-3-nitrophenyl)sulfonyl)benzamide]	5.64	2550	0.552	13.9
